In patent US4758421A (priority 1985, dated 1988):

Legend:
[1] = test system: Chinese hamster ovary (CHO) cells; experiment: CHO cell survival after 60 minutes exposure (FIG. 4); assay type: cell-based
Experimental: Chinese hamster ovary (CHO) cells were cultured in standard cell-culture medium, under log phase growth conditions. Increasing concentrations of either BL--Co--S--FeEDTA or FeEDTA were added to each of two groups of cells. The cells were incubated for 60 minutes at 37° C., and the percent cell survivors was determined conventionally by serial dilution in microtitre plates.

CHA255 = experiment: Binding constants with monoclonal antibody CHA255 by equilibrium dialysis; set-up: species or system mice; settings: specificity of antibody for the antibody-inducing antigen
Experimental: (§1) Monoclonal antibodies against L--benzyl--EDTA--In were prepared in cooperation with Hybritech, Inc., 11085 Toneyana Road, San Diego, Calif. 92121. Briefly, an L--benzyl--EDTA--In isothiocyanate reagent was reacted with keyhole limpet hemocyanin, which was used to immunize mice. Splenocytes derived from the immunized mice were fused with a suitable tumor cell line, using known somatic cell hybridization techniques. Promising clones were grown in mouse ascites fluid, and the antibodies obtained were purified by ion-exchange chromatography. Two antibodies against L--benzyl--EDTA--In, designated CHA255 and CHB235, were selected.
(§2) The binding constants of the two monoclonal antibodies with L--benzyl--EDTA chelates of several different metals were determined by equilibrium dialysis. The measured binding constants were shown in Table II below, with standard deviations indicated in parentheses.
(§3) Table III gives binding constant data from a second binding affinity study, involving different In--EDTA and In--HED3A chelates.

CHB235 = experiment: Binding constants with monoclonal antibody CHB235 by equilibrium dialysis; set-up: species or system mice; settings: specificity of antibody for the antibody-inducing antigen
Experimental: as §1, §2, §3

| Molecule | cell toxicity [1] | binding constant greater than for non-antigen metal chelates (CHA255) | binding constant greater than for non-antigen metal chelates (CHB235) |
| --- | --- | --- | --- |
| O=C([O-])CN(CCN(CC(=O)[O-])CC(=O)[O-])CC(=O)[O-].[Fe+3] [FeEDTA] | relatively non-toxic | – | – |
| L--benzyl--EDTA--In [In (III)] | – | 1 to 4 orders of magnitude | 1 to 4 orders of magnitude |
